Laboratory results published in ChEMBL document CHEMBL1201862, “PubChem BioAssay data set” (2004).
The source made the active and inactive calls.

Key:
[1] = Shn3 3'UTR reporter inhibitors, dose response, cell-based, Clone20 osteoblasts, firefly luciferase, cherry-picked (AID 624132); format: functional;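 further: firefly luciferase luminescence from reporter carrying the Shn3 3'UTR in osteoblasts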
[2] = HepG2 cell cytotoxicity, dose response, cytotoxicity control for Shn3 inhibitor project, CellTiter-Glo, cherry-picked (AID 624134); format: functional, cell-based
[3] = control 3'UTR Renilla luciferase suppression, dose response, counter-screen for Shn3 inhibitor project, cell-based, Clone20-Shn3RL, cherry-picked (AID 624133); format: functional
[4] = target: T1, Polyadenylate-binding protein 1 (Homo sapiens, UniProt P11940); assay: PABP1 MLLE–PAM2 interaction inhibitors, dose response, miRNA deadenylation inhibitor project, biochemical, fluorescence polarization, Cy5-PAM2 peptide, secondary (AID 602260); format: functional; details: read-out: IC50_Mean
T1 sequence (P11940 whole entry): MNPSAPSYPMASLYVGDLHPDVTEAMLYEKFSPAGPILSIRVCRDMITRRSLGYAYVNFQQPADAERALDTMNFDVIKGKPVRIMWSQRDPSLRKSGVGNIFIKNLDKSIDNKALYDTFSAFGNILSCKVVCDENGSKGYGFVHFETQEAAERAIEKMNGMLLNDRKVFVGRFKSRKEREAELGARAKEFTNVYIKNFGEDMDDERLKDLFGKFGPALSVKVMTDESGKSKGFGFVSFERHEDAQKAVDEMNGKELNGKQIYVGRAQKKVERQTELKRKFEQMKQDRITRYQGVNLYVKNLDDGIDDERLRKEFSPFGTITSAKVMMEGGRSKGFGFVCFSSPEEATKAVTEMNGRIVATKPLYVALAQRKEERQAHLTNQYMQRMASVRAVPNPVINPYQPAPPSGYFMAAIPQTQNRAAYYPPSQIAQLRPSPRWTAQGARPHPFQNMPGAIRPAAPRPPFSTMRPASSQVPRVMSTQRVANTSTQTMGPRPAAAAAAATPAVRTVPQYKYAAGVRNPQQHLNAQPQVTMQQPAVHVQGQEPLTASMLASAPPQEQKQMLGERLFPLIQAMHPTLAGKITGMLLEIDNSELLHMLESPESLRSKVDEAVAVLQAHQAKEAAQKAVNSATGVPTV

[5] = target: T1, Polyadenylate-binding protein 1; assay: PABP1 MLLE–PAM2 binding inhibitor potency, dose response, biochemical, fluorescence polarization, FITC-PAM2 peptide (AID 602259); format: functional; details: read-out: IC50_Mean
[6] = system: INS1; assay: beta cell apoptosis inhibitors, cytokine rescue, dose response, luminescence, retest (AID 449756); format: functional, cell-based; details: Rattus norvegicus;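 further: cell death triggered by IL-1 beta plus TNF-alpha plus IFN-gamma mixture; protective hits raise ATP signal compared with cytokine alone wells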
[7] = target: T2, Leucine aminopeptidase (Plasmodium falciparum 3D7, UniProt Q8IL11); assay: P. falciparum M17LAP inhibitors, primary screen, biochemical, fluorogenic H-Leu-NHMec substrate, 1536-well (AID 1619); format: functional
T2 sequence (Q8IL11 whole entry): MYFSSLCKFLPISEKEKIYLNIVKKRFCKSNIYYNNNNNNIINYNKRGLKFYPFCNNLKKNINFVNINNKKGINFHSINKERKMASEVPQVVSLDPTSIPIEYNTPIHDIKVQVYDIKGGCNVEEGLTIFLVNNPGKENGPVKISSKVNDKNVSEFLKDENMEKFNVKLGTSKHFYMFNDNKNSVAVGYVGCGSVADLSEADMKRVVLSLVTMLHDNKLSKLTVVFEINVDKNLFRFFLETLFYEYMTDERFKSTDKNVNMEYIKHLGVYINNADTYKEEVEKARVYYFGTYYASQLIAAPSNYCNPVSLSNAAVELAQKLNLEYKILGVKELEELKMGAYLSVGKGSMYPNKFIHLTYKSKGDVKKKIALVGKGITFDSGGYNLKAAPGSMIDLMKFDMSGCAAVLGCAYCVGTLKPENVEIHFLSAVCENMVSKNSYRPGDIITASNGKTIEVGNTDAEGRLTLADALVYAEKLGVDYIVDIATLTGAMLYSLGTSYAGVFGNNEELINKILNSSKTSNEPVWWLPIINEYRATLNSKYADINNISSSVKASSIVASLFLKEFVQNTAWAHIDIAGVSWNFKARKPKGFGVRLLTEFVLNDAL

[8] = target: Genome polyprotein (dengue virus type 2, UniProt P29990); assay: Dengue-2 NS5 methyltransferase inhibitors, primary screen, biochemical, confirmation dose response (AID 588689); format: functional
Sequence of Genome polyprotein (P29990 2492-3391 limits assumed): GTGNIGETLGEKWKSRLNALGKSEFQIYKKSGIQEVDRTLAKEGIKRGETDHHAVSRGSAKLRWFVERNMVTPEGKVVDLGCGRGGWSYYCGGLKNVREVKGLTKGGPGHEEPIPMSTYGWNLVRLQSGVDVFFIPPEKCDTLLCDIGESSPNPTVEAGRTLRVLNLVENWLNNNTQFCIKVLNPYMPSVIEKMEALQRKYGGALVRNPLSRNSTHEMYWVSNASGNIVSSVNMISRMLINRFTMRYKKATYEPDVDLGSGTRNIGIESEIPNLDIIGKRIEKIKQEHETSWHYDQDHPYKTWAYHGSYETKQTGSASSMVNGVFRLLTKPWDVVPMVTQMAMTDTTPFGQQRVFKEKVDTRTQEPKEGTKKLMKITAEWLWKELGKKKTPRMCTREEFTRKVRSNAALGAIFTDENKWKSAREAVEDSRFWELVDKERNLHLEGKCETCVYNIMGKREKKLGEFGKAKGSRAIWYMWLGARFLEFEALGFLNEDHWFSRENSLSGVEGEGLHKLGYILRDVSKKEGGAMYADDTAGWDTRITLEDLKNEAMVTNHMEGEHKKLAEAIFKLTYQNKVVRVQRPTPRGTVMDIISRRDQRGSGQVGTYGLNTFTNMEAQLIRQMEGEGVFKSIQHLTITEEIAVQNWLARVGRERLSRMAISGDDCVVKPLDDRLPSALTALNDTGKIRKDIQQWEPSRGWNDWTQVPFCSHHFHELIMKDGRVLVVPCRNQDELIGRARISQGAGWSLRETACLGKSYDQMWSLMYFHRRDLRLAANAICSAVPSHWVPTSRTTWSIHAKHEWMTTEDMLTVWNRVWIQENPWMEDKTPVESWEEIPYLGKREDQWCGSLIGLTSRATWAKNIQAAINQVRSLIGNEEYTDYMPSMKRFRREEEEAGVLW

[9] = inhibitors of firefly luciferase expression or activity, dose response, H4 neuroglioma cells, luminescence (AID 1990); format: functional, cell-based
[10] = Luminescence Cell-Based Dose Response HTS to Identify Inhibitors of 5'UTR Stem-Loop Driven Prion Protein mRNA Translation in H4 Neuroglioblastoma Cells. [Related pubchem assays: 1827 (Project Summary), 1813 (Primary HTS)]; format: functional
[11] = inhibitors of SNCA 5'UTR-driven reporter translation, confirmation, H4 neuroglioma cells, luminescence (AID 1988); format: functional, cell-based
[12] = system: Escherichia coli; assay: microbe, parasite or virus in culture
[13] = target: G-protein coupled receptor 55 (Homo sapiens, UniProt Q9Y2T6); assay: GPR55 agonists via beta-arrestin recruitment, primary screen, imaging, U2OS cells, beta-arrestin-GFP redistribution (AID 1961); format: functional
Sequence of G-protein coupled receptor 55 (Q9Y2T6 whole entry): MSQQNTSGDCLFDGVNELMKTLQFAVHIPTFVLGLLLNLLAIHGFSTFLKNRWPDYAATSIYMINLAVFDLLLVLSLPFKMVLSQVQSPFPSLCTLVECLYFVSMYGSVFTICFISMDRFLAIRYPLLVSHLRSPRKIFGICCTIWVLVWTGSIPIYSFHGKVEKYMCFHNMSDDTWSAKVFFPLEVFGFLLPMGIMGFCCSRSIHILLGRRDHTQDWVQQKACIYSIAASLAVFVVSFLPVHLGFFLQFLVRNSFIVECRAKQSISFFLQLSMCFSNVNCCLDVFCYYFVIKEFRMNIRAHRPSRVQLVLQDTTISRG

[14] = target: T3, Heat shock factor protein 1 (Mus musculus, UniProt P38532); assay: HSF1 potentiators in luciferase reporter cells, confirmation, cell-based, NIH3T3, luminescence, dose retest (AID 435004); format: functional;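 further: stress induced by proteasome inhibitor MG132 added 30 min after compound; luciferase reporter driven by HSF1 response element in NIH3T3 cells; actives raise luminescence as potentiators of the MG132 stress response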
T3 sequence (P38532 whole entry): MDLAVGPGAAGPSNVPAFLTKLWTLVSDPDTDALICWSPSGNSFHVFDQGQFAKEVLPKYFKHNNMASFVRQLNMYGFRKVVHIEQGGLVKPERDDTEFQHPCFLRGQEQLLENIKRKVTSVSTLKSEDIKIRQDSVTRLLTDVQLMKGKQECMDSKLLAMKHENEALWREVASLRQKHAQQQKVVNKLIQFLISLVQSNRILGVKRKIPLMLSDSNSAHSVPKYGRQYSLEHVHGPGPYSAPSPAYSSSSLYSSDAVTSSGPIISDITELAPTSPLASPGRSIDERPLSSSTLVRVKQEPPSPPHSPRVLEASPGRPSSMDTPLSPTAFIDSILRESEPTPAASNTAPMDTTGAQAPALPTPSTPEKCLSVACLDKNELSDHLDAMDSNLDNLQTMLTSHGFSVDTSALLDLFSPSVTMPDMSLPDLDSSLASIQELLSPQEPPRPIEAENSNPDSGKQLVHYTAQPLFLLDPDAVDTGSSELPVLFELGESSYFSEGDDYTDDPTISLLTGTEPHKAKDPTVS

[15] = target: T4, Replicative DNA helicase DnaB (Mycobacterium tuberculosis, UniProt P9WMR3); assay: DnaB intein splicing inhibitors, dose response, biochemical, cell-free fluorescence (AID 449749); format: functional
T4 sequence (P9WMR3 whole entry): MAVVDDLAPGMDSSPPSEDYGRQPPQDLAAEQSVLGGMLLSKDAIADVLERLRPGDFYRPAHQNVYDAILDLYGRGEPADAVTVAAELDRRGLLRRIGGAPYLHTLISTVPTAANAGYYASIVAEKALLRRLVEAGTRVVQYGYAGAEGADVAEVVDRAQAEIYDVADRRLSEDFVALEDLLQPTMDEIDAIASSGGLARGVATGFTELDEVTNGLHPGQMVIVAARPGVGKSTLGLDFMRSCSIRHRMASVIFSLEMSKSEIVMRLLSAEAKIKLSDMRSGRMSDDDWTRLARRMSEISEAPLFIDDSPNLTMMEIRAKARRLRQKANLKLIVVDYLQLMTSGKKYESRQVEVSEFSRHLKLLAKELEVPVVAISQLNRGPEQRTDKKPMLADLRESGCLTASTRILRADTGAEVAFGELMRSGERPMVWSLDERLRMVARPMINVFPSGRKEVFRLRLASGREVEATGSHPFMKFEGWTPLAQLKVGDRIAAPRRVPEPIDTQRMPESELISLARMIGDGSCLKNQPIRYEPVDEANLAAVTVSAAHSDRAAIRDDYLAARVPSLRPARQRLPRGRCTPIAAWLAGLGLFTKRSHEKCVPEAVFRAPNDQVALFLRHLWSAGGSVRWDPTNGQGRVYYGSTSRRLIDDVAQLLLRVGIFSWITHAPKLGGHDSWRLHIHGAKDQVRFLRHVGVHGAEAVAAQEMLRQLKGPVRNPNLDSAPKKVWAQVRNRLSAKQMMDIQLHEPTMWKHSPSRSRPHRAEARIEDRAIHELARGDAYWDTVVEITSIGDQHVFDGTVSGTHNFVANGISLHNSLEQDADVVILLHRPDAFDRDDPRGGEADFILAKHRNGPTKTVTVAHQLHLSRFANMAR

[16] = target: T5, Protein RecA (Mycobacterium tuberculosis, UniProt P9WHJ3); assay: Fluorescence Cell-Free Homogeneous Dose Retest to Identify Inhibitors of RecA-Intein Splicing Activity. [Related pubchem assays (depositor defined):AID2097, AID2223, AID489010, AID492950]; format: functional
T5 sequence (P9WHJ3 whole entry): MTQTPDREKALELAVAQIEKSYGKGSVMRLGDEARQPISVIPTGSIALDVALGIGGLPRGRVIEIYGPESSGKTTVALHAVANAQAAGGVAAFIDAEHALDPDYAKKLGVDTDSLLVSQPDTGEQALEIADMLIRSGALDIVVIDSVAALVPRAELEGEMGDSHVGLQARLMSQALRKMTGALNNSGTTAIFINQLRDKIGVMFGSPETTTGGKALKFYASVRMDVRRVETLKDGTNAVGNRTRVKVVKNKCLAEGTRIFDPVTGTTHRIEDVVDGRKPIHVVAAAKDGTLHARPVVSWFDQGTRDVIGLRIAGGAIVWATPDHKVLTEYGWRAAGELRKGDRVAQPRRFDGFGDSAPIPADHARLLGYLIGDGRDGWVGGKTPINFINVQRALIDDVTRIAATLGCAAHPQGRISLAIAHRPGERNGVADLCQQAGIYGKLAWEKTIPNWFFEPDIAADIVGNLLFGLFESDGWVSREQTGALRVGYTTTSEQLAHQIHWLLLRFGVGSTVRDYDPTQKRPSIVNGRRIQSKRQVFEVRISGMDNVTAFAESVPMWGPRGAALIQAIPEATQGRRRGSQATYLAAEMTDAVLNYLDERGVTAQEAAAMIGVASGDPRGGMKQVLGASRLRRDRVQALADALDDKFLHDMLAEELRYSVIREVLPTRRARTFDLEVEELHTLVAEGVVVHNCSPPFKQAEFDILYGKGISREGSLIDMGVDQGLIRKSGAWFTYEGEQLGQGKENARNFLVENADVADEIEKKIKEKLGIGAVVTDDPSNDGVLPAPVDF

[17] = target: Cytochrome P450 2C19 (Homo sapiens, UniProt P33261); assay: Cytochrome panel assay with activity outcomes. Panel member name: p450-cyp2c19 Compounds with AC50 equal or less than 10 uM are considered active; format: functional; details: read-out: AC50
Sequence of Cytochrome P450 2C19 (P33261 whole entry): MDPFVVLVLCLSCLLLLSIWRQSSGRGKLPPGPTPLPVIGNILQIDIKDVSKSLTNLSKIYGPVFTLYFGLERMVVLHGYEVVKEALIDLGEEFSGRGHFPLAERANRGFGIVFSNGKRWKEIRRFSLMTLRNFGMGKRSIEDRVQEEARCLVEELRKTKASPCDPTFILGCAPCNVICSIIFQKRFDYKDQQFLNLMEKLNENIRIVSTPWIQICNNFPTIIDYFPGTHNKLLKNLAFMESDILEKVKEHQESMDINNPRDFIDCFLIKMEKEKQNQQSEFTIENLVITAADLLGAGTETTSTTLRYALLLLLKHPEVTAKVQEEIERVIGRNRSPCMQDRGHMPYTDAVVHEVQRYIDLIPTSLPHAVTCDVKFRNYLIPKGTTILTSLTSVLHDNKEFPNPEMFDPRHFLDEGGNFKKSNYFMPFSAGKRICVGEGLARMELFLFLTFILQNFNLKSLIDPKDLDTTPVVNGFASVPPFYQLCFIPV

[18] = target: DNA (cytosine-5)-methyltransferase 1 (Homo sapiens, UniProt P26358); assay: DNMT1 methyltransferase inhibitors, confirmation, biochemical, fluorescent molecular beacon (AID 602386); format: functional
Sequence of DNA (cytosine-5)-methyltransferase 1 (P26358 whole entry): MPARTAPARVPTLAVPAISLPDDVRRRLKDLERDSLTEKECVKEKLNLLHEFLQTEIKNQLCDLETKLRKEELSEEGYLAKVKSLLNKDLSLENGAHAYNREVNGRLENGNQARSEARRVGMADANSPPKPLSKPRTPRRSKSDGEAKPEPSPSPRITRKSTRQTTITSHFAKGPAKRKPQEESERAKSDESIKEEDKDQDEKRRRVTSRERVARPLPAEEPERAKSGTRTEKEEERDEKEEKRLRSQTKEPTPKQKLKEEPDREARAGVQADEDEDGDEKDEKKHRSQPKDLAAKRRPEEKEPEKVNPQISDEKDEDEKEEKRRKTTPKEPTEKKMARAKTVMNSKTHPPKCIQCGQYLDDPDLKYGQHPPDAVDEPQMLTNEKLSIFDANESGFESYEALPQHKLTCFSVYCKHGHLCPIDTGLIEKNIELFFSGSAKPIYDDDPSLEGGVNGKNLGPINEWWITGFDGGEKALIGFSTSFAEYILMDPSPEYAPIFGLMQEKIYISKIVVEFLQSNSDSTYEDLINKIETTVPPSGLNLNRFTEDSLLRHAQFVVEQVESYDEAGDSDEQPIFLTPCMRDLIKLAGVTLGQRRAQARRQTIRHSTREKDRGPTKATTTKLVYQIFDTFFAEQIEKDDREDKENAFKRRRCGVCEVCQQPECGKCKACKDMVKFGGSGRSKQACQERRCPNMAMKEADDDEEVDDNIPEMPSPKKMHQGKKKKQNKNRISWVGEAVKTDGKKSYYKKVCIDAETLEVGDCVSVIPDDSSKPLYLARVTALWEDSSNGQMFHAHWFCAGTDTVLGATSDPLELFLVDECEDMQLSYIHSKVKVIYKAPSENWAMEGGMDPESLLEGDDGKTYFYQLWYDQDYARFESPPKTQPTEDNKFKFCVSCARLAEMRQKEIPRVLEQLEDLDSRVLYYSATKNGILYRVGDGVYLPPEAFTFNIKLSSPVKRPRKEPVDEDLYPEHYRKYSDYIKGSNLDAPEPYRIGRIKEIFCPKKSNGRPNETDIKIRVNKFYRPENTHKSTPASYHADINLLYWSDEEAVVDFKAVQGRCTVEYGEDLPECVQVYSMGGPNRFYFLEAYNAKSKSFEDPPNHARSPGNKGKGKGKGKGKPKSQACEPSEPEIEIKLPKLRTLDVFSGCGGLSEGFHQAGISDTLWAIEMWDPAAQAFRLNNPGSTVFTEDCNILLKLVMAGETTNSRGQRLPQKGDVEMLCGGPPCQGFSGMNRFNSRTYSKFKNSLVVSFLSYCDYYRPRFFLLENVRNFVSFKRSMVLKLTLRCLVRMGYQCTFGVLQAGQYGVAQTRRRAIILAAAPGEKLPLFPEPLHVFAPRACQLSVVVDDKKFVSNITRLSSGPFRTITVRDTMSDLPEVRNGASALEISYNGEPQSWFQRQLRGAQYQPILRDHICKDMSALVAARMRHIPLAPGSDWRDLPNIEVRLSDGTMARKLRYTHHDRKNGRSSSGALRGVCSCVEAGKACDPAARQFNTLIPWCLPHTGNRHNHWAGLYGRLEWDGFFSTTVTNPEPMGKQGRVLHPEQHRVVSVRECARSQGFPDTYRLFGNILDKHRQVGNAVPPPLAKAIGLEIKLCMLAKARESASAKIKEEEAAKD

O=C(Nc1cccc(Cl)c1Cl)C1CC(=O)N(c2ccc(Br)cc2)C1 (stereo not drawn)
AC50 [1]: 8.23 µM (active) | AC50 [2]: 38.4 µM (active) | AC50 [3]: 9.56 µM (active)

COc1ccc(NC(=O)c2ccco2)cn1
IC50 [4]: > 66 µM (inactive) | IC50 [5]: 34.1 µM (inactive)

Cc1ccc(-n2ncc3c2CCCC3NC(=O)c2ocnc2C)cc1C (stereo not drawn)
AC50 [6]: 3.69 µM (active) | AC50 [1]: 1.29 µM (active) | AC50 [2]: 0.594 µM (active) | AC50 [3]: 3.35 µM (active)

CCCCCCSc1nc(O)c(C2OC(=O)c3c2ccc(OC)c3OC)c(=O)n1-c1ccccc1 (stereo not drawn)
IC50 [7]: 4.82 µM (active) | IC50 [8]: 30.2 µM (active)

CC(C)(C)NC(=O)CSc1nc2ccc(NC(=O)CSc3nnnn3Cc3ccccc3)cc2s1
AC50 [1]: 3.26 µM (active) | AC50 [2]: 53 µM (active) | AC50 [3]: 6.81 µM (active)

CCOc1cc(C(=O)CSc2nnc(CNc3ccc(Cl)cc3)o2)ccc1NC(=O)CC
EC50 [9]: > 120 µM (not active) | EC50 [10]: 23 µM (active) | EC50 [11]: 7.28 µM (active) | AC50 [1]: 7.73 µM (active) | AC50 [2]: 29.5 µM (active) | AC50 [3]: 36.5 µM (active)

c1ccc(-n2c(SCC3CCCCO3)nnc2-c2cccs2)cc1 (stereo not drawn)
AC50 [12]: 24.4 µM (active)

COc1ccc2nc3cc(Cl)ccc3c(Nc3cc(C(C)C)c(O)cc3C)c2c1
EC50 [13]: 1 µM (active) | EC50 [14]: 154 µM (active) | AC50 [15]: > 380 µM (inactive) | EC50 [16]: 0.318 µM (active)

CCCCN(CCCC)C(=O)c1cn(CC)c2cc(N3CCN(C)CC3)c(F)cc2c1=O
AC50 [12]: 1.67 µM (active)

O=C(O)CSC1CC(=O)N(c2ccc(Cl)c(Cl)c2)C1=O (stereo not drawn)
IC50 [4]: > 66 µM (inactive) | IC50 [5]: > 66 µM (inactive)

CCCCc1c(O)n(-c2ccccc2)c(SCCN(C)C)nc1=O
AC50 [17]: 6.31 µM (inconclusive) | IC50 [4]: > 66 µM (inactive) | IC50 [5]: > 66 µM (inactive)

O=C(CCc1nc(O)c2ccccc2n1)OCC(=O)c1cccc(Cl)c1
AC50 [12]: 41.4 µM (active)

CCOC(=O)c1nn(-c2ccc(F)cc2)c(=O)cc1OCC(=O)Nc1ccc(OCC)cc1
IC50 [18]: > 99 µM (inactive)

COc1ccc(S(=O)(=O)CC(=O)c2cc3cccc(C)c3oc2=O)cc1
IC50 [8]: 78.1 µM (active)

CC(C)(CNC(=O)c1ccc(Cl)c(S(=O)(=O)N2CCc3ccccc3C2)c1)N1CCOCC1
AC50 [1]: 10.5 µM (active) | AC50 [2]: 2.14 µM (active)

O=C(CCSc1nnc(-c2ccco2)o1)N1CCOCC1
AC50 [12]: 119 µM (active)

COc1ccc(CC(N)c2csc(NC(=O)Nc3ccc(C(C)C)cc3)n2)cc1 (stereo not drawn)
AC50 [1]: 5.16 µM (active) | AC50 [2]: 10.9 µM (active) | AC50 [3]: 11.9 µM (active)

Cc1[nH]n(-c2ccccc2)c(=O)c1C(c1cccc([N+](=O)[O-])c1)c1c(C)[nH]n(-c2ccccc2)c1=O
AC50 [15]: 3.28 µM (active) | EC50 [16]: 0.805 µM (active) | IC50 [8]: 52.9 µM (active)
